Test results published in patent publication US20080032978A1, “SOLUBLE EPOXIDE HYDROLASE INHIBITORS” (Arete Therapeutics, Inc., priority 2006, published 2008).

Tests used:
[1] = system: soluble epoxide hydrolase (sEH); test: Fluorescent assay for mouse and human soluble epoxide hydrolase (CMNPC substrate); type: biochemical
Text: Fluorescent Assay for Mouse and Human Soluble Epoxide Hydrolase Recombinant mouse sEH (MsEH) and human sEH (HsEH) were produced in a baculovirus expression system as previously reported. Grant et al., J. Biol. Chem., 268:17628-17633 (1993); Beetham et al., Arch. Biochem. Biophys., 305:197-201 (1993). The expressed proteins were purified from cell lysate by affinity chromatography. Wixtrom et al., Anal. […] Protein concentration was quantified using the Pierce BCA assay using bovine serum albumin as the calibrating standard. […] Solutions: Bis/Tris HCl 25 mM 7.0 containing 0.1 mg/mL of BSA (buffer […] at 0.25 mM in DMSO. Mother solution of enzyme in buffer A (Mouse sEH at 6 μg/mL and Human sEH at 5 μg/mL). Inhibitor dissolved in DMSO at the appropriate concentration. Protocol: In a black 96 well plate, fill all the wells with 150 μL of buffer A. Add 2 μL of DMSO in well A2 and A3, and then add 2 μL of inhibitor solution in A1 and A4 through A12. Add 150 μL of buffer A in a row A, then mix several time and transfer 150 μL to row B. Repeat this operation up to row H. The 150 μL removed from row H go to the trash. Add 20 μL of buffer A in column 1 and 2, then add 20 μL of enzyme solution to column 3 to 12. Incubate the plate for 5 minutes in the plate reader at 30° C. During incubation prepare the working solution of substrate by mixing 3.68 mL of buffer A (4×0.920 mL) with 266 μL (2×133 μL) of substrate solution). At t=0, add 30 μL of working substrate solution with multi-channel pipette labeled “Briggs 303” and start the reading ([S]final: 5 μM). Read with ex: 330 nm (20 nm) and em: 465 nm (20 nm) every 30 second for 10 minutes. The velocities are used to analyze and calculate the IC50s.

Structure (SMILES) | % I ([1]; Conc of I 5000 nM) [%] | melting point [°C] | % I ([1]; Conc of I 500 nM) [%] | % I ([1]; Conc of I 50 nM) [%]
O=C(Nc1ccc(C(=O)N2CCC(C(=O)O)CC2)cc1)NC12CC3CC(CC(C3)C1)C2 [Compound 12, 1-[4-(3-Adamantan-1-yl-ureido)-benzoyl]-piperidine-4-carboxylic acid] | 99 | 272 to 275 |  | 
COCCN1CCN(C(=O)c2ccc(NC(=O)Nc3ccc(F)cc3)cc2)CC1 [Compound 25, 1-(4-Fluoro-phenyl)-3-{4-[4-(2-methoxy-ethyl)-piperazine-1-carbonyl]-phenyl}-urea] |  | 248 to 250 | 77 | 
COCCN1CCN(C(=O)c2ccc(NC(=O)Nc3ccc(OC(F)(F)F)cc3)cc2)CC1 [Compound 28, 1-{4-[4-(2-Methoxy-ethyl)-piperazine-1-carbonyl]-phenyl}-3-(4-trifluoromethoxy-phenyl)-urea] |  | 235 to 240 |  | 91
O=C(Nc1ccc(C(F)(F)F)cc1)Nc1cccc(C(=O)N2CCC(C(=O)O)CC2)c1 [Compound 29, 1-{3-[3-(4-Trifluoromethyl-phenyl)-ureido]-benzoyl}-piperidine-4-carboxylic acid] |  | 193 to 197 | 94 | 
CN(CC(=O)O)C(=O)C1CCC(NC(=O)NC23CC4CC(CC(C4)C2)C3)CC1 (stereo not drawn) [Compound 36, {[4-(3-Adamantan-1-yl-ureido)-cyclohexanecarbonyl]-methyl-amino}-acetic acid] |  | 236 to 240 | 95 | 
CN(C)CCN(C)C(=O)c1ccc(NC(=O)NC23CC4CC(CC(C4)C2)C3)cc1 [Compound 37, 4-(3-Adamantan-1-yl-ureido)-N-(2-dimethylamino-ethyl)-N-methyl-benzamide] |  | 150 to 156 | 88 | 
CN(C)CCN(C)C(=O)c1cccc(NC(=O)NC23CC4CC(CC(C4)C2)C3)c1 [Compound 38, 3-(3-Adamantan-1-yl-ureido)-N-(2-dimethylamino-ethyl)-N-methyl-benzamide] |  | 89 to 94 | 81 | 
CN(CC(=O)N1CCOCC1)C(=O)c1ccc(NC(=O)Nc2ccc(C(F)(F)F)cc2)cc1 [Compound 39, N-Methyl-N-(2-morpholin-4-yl-2-oxo-ethyl)-4-[3-(4-trifluoromethyl-phenyl)-ureido]-benzamide] |  | 226 to 233 | 86 | 
O=C(NC1CCCCC1)NC1CCC(C(=O)N2CCOCC2)CC1 (stereo not drawn) [Compound 40, 1-Cyclohexyl-3-[4-(morpholine-4-carbonyl)-cyclohexyl]-urea] |  | 159 to 163 | 92 | 
